For the assay, the system named is central 5HT. Description: inhibition of behavioural symptoms (forepaw tapping, head jerks, splayed limbs) induced by 5-methoxy-N,N-dimethyltryptamine in mice. Type of assay: in vivo, mice (male CD-1 Charles Rine). The note with it: 1 h pretreatment, 10 mg/kg ip 5-methoxy-N,N-dimethyltryptamine; for ED50: Mus musculus, 1 h, read-out: ED50 (dose of compound inhibiting the symptoms by 50%). As to the method: Mice (.male. CD^-1 Charles Rine) are pretreated with the compounds 10 animals/group under investigation and 1 h later one group is injected with 10 mg/kg ip 5-methoxy-N,N-dimethyltryptamine (Sigma). The symptoms of forepaw tapping movements, head jerks and splayed limbs are scored: 1, present; 0, absent, giving a maximum score of 3/mouse or 30/group. Results are expressed as the percentage inhibition compared to the group treated with 5-methoxy-N,N-dimethyl tryptamine alone. The dose of compound inhibiting the symptoms by 50% is determined graphically.

Results on 7 compounds are retold here after patent US4442098A, “Pentacyclic derivatives of piperazine” (Beecham Group Limited, priority 1980, dated 1984).

Where two headings read alike, the source gives them in different places.

As a reminder, the ED50 is the dose at which the effect has come halfway, by size or by number of responders. For the compound `CN1CC2CC(O)c3cccc4c3N2C(C1)c1ccccc1C4` (single isomer, unassigned) [Compound 3, 1,2,3,3a,4,5,9,13b-Octahydro-2-methyl-2-benzazepino[4,3,2-ij]pyrazino[1,2-a]quinolin-5-ol], the ED50 (po, p.o.) was found to be 0.65 mg/kg.

Turning to `CN1CC2CC(O)c3cccc4c3N2C(C1)c1ccccc1C4` (single isomer, unassigned) [Compound 4, 1,2,3,3a,4,5,9,13b-Octahydro-2-methyl-2-benzazepino[4,3,2-ij]pyrazino[1,2-a]quinolin-5-ol], the median effective dose (ED50) (ip, i.p.) turned out to be 0.3 mg/kg.

For the compound `CN1CC2CC(=O)c3cccc4c3N2C(C1)c1ccccc1C4` (stereo not shown) [Compound 1, 1,2,3,3a,4,5,9,13b-Octahydro-2-methyl-2-benzazepino[4,3,2-ij]pyrazino[1,2-a]quinolin-5-one], the ED50 (po, p.o.) came to 12 mg/kg.

With `CN1CC2CCc3cccc4c3N2C(C1)c1ccccc1C4` (stereo not shown) [Compound 6, 1,2,3,3a,4,5,9,13b Octahydro-2-methyl-2-benzazepino[4,3,2-ij]pyrazino[1,2-a]quinoline], the ED50 (po, p.o.) was 10 mg/kg.

As for `CN1CC2CCc3cccc4c3N2C(C1)c1ccccc1C4` (stereo not shown) [Compound 7, 1,2,3,3a,4,5,9,13b-octahydro-2-methyl-2-benzazepino[4,3,2-ij]pyrazino[1,2-a]quinoline], the “ED50 (dose of compound inhibiting the symptoms by 50%)” value (p.o., 60 min) is 13 mg/kg.

Take `CN1CC2CC(=NO)c3cccc4c3N2C(C1)c1ccccc1C4` (stereo not shown) [Compound 8, 1,2,3,3a,4,5,9,13b-octahydro-2-methyl-2-benzazepino[4,3,2-ij]-pyrazino[1,2-a]-5-oxaminoquinoline]: the ED50 (po, p.o.) is 3 mg/kg.

As for `CN1CC2CC(=O)c3cccc4c3N2C(C1)c1ccccc1O4` (stereo not shown) [Compound 16, 2-methyl,1,3,4,14b-tetrahydro 4,6-ethano-2H-dibenzo[bf]pyrazino[1,2-d][1,4]oxazepin-15-one], the ED50 (po, p.o.) is 10 mg/kg.
